In patent US11987569B2, “Substituted imidazoquinolines as agonists of TLR7” (BIONTECH SE, priority 2017, dated 2024):

Test system: superficial basal cell carcinomas
Assay: not given
Conditions: marketed as 5% cream (Aldara); cited from earlier work

Q: With `CC(C)Cn1cnc2c(N)nc3ccccc3c21` [Imiquimod, imiquimod] as the compound, how does the “5-year clearance of superficial basal cell carcinomas” value read?
A: The value was “approx. 80%”.

Test system: human PBMCs
Assay: IFN-α induction assay: IFN-α induction by TLR agonists in human PBMCs (Luminex)
Type: cell-based
Conditions: 24 h incubation, comparative compounds, Table 2
Method: IFN-α Induction Assay—IFN-α Induction by TLR Agonists in Human PBMCs
Materials and Devices: Bio Plex 200 Luminex device, and BioPlex Manager software; MultiScreen Filter Plates (Millipore, MABVN1250); low binding reaction vials 1.5 ml (Sarstedt, 72.706.600); Activation Buffer: 0.1M Na-dihydrogen phosphate, 0.1M Di-Na hydrogen phosphate pH 6.2; Sulfo-NHS (N-hydroxysulfosuccinimide) solution: 50 mg/ml in water (freshly prepared); EDC solution: 50 mg/ml in water (freshly prepared); Coupling Buffer: PBS; Washing Buffer: PBS+0.05% Tween20; Blocking Buffer: PBS+10 mg/ml BSA+0.05% sodium azide; Assay Buffer: PBS+10 mg/ml BSA;
In each well of a 96-well U-bottom plate 200,000 PBMCs were pre-incubated in medium (RPMI1640−Gibco #61870-044÷10% FBS+1% L-glutamine) for 5 hours at 37° C. and 5% CO2 before the compounds of the present invention or controls were added, respectively. Upon addition of compounds of the present invention or controls, the cells are incubated for another 24 h at 37° C. and 5% Co2.
Luminex assay, Step 1: Coupling of antibody to beads: • transfer a suspension (beads are stored in buffer as provided by manufacturer) of about 5 million MicroPlex Microspheres (=beads) into a low binding reaction vial • centrifuge bead suspension for 1 min at 10,000 g, discard supernatant and resuspend pellet in 160 μl Activation Buffer, repeat once • add 20 μl Sulfo-NHS solution and 20 μl EDC solution, vortex • incubate for 20 min in the absence of light • centrifuge bead suspension for 1 min at 10,000 g, discard supernatant and resuspend pellet in 500 μl Coupling Buffer, repeat once • add capture antibody (CaptureAK eBioscience #BMS160, 5 μg per 1 Mio beads) • incubate 2 h at RT in the absence of light while swaying • centrifuge bead suspension for 1 min at 10,000 g, discard supernatant and resuspend pellet in 500 μl Washing Buffer, repeat once • centrifuge bead suspension for 1 min at 10,000 g, discard supernatant and resuspend pellet in 100 μl Blocking Buffer
Luminex Assay, Step 2: Measurement • add 100 μl Assay Buffer into each filter plate well (seal any unused wells with adhesive tape), then remove buffer • add about 2,000 beads per well per analyte (per analyte, a different bead type with distinct fluorescence color is used), suspended in 50 μL of Assay Buffer • remove buffer and wash twice with 100 μl Washing Buffer per well • per well, add 50 μl sample solution from the (pre-)incubation step (cell supernatant), or Standard (IFN-α standard eBioscience #BMS216MST—concentration gradient, highest standard concentration 2500 pg/ml) or Assay Buffer (as blanks) • shake plate • incubate plate for 2 h at RT in the absence of light, while swaying the plate • wash three times with 100 μl Washing Buffer per well • add 25 μl antibody detection mix (DetectionAK eBioscience #BMS1016BT diluted 1:1000) in Assay Buffer per well, then vortex plate • incubate plate for 1 h at RT in the absence of light, while swaying the plate • wash three times with 100 μl Washing Buffer per well • add 50 μl Streptavidin/PE (diluted 1:200 in Assay Buffer) per well, then vortex plate • incubate plate for 10 min at RT in the absence of light, while swaying the plate • wash three times with 100 μl Washing Buffer per well • add 100 μl Assay Buffer per well, then vortex plate • start Luminex measurement according to manufacturer's instructions, measuring at least 50 beads per well per analyte
The compounds were tested at 8 different concentrations (1 μM, 0.3 μM, 0.1 μM, 0.03 μM, 0.01 μM 0.003 μM, 0.001 μM, 0.0003 μM) using a half-logarithmic dilution. The release of Interferon-alpha (IFN-α) presents a bell-shaped distribution within the dilution window. The minimum effective concentration (MEC) is the lowest concentration required to induce the desired IFN-α release. It represents the outset of the bell-shaped distribution and is given in nM. […]

Q: With `CCNCc1nc2c(N)nc3ccccc3c2n1CCCCN(C(=O)OC)C1CCS(=O)(=O)C1` (stereo not drawn) [11′, reference compound] as the compound, how does the “Minimum effective concentration IFN-α release” value read?
A: The value was “inactive”.

Q: With `CCNCc1nc2c(N)nc3ccccc3c2n1CCCCN(C(C)=O)C1CCS(=O)(=O)C1` (stereo not drawn) [10′, reference compound] as the compound, how does the “Minimum effective concentration IFN-α release” value read?
A: Its value is “inactive”.

Same assay, conditions: PBMC, 24 h incubation, comparative compounds, Table 2, read-out: Minimum effective concentration IFN-α release

Q: For `CCNCc1nc2c(N)nc3ccccc3c2n1CCCCN(C(N)=O)C1CCS(=O)(=O)C1` (stereo not drawn) [12′, reference compound], which minimal effective concentration is on record?
A: The minimal effective concentration was 10 µM.

Q: With `CCc1nc2c(N)nc3ccccc3c2n1CCCCN(C(N)=O)C1CCS(=O)(=O)C1` (stereo not drawn) [9′, reference compound] as the compound, how does the minimal effective concentration read?
A: The minimal effective concentration was 0.3 µM.

Q: Which minimal effective concentration does the source give for `COCCc1nc2c(N)nc3ccccc3c2n1CCCCN(C(N)=O)C1CCS(=O)(=O)C1` (stereo not drawn) [15′, reference compound] here?
A: Its minimal effective concentration is 0.1 µM.

Q: With `CCc1nc2c(N)nc3ccccc3c2n1CCCCN(C(C)=O)C1CCS(=O)(=O)C1` (stereo not drawn) [7′, N-[4-(4-amino-2-ethyl-1H-imidazo[4,5-c]quinolin-1-yl)butyl]-N-(1,1-dioxidotetrahydro-3-thienyl)acetamide, reference compound] as the compound, how does the minimal effective concentration read?
A: Its minimal effective concentration is 0.3 µM.

Q: For `COCCc1nc2c(N)nc3ccccc3c2n1CCCCN(C(C)=O)C1CCS(=O)(=O)C1` (stereo not drawn) [13′, reference compound], which minimal effective concentration is on record?
A: Its minimal effective concentration is 0.03 µM.

Q: Which minimal effective concentration does the source give for `COCCc1nc2c(N)nc3ccccc3c2n1CCCCN(C(=O)OC)C1CCS(=O)(=O)C1` (stereo not drawn) [14′, reference compound] here?
A: Its minimal effective concentration is 0.01 µM.

Q: Which minimal effective concentration does the source give for `CCc1nc2c(N)nc3ccccc3c2n1CCCCN(C(=O)OC)C1CCS(=O)(=O)C1` (stereo not drawn) [8′, reference compound] here?
A: The minimal effective concentration was 0.1 µM.

Same assay, conditions: PBMC, 24 h incubation, lowest concentration inducing the desired IFN-α release, Table 1, read-out: Minimum effective concentration IFN-α release

Q: Which minimal effective concentration does the source give for `CCNCc1nc2c(N)nc3ccccc3c2n1CCCCN(C(=O)OC)C1CS(=O)(=O)C1` [Example 11, Methyl (4-(4-amino-2-((ethylamino)methyl)-1H-imidazo[4,5-c]quinolin-1-yl)butyl)(1,1-dioxidothietan-3-yl)carbamate] here?
A: The minimal effective concentration was 0.1 µM.

Q: With `CCNCc1nc2c(N)nc3ccccc3c2n1CCCCN(C(C)=O)C1CS(=O)(=O)C1` [Example 10, N-(4-(4-Amino-2-((ethylamino)methyl)-1H-imidazo[4,5-c]quinolin-1-yl)butyl)-N-(1,1-dioxidothietan-3-yl)acetamide] as the compound, how does the minimal effective concentration read?
A: Its minimal effective concentration is 1 µM.

Q: For `CCc1nc2c(N)nc3ccccc3c2n1CCCCN(C(N)=O)C1CS(=O)(=O)C1` [Example 9, 1-(4-(4-Amino-2-ethyl-1H-imidazo[4,5-c]quinolin-1-yl)butyl)-1-(1,1-dioxidothietan-3-yl)urea], which minimal effective concentration is on record?
A: Its minimal effective concentration is 0.1 µM.

Q: For `COCCc1nc2c(N)nc3ccccc3c2n1CCCCN(C(C)=O)C1CS(=O)(=O)C1` [Example 13, N-(4-(4-Amino-2-(2-methoxyethyl)-1H-imidazo[4,5-c]quinolin-1-yl)butyl)-N-(1,1-dioxidothietan-3-yl)acetamide], which minimal effective concentration is on record?
A: The minimal effective concentration was 0.01 µM.

Q: With `CCc1nc2c(N)nc3ccccc3c2n1CCCCN(C(C)=O)C1CS(=O)(=O)C1` [Example 7, N-(4-(4-Amino-2-ethyl-1H-imidazo[4,5-c]quinolin-1-yl)butyl)-N-(1,1-dioxidothietan-3-yl)acetamide] as the compound, how does the minimal effective concentration read?
A: The minimal effective concentration was 0.1 µM.

Q: For `CCNCc1nc2c(N)nc3ccccc3c2n1CCCCN(C(N)=O)C1CS(=O)(=O)C1` [Example 12, 1-(4-(4-Amino-2-((ethylamino)methyl)-1H-imidazo[4,5-c]quinolin-1-yl)butyl)-1-(1,1-dioxidothietan-3-yl)urea], which minimal effective concentration is on record?
A: The minimal effective concentration was 3 µM.

Q: For `COCCc1nc2c(N)nc3ccccc3c2n1CCCCN(C(N)=O)C1CS(=O)(=O)C1` [Example 15, 1-(4-(4-Amino-2-(2-methoxyethyl)-1H-imidazo[4,5-c]quinolin-1-yl)butyl)-1-(1,1-dioxidothietan-3-yl)urea], which minimal effective concentration is on record?
A: Its minimal effective concentration is 0.02 µM.

Q: Which minimal effective concentration does the source give for `COCCc1nc2c(N)nc3ccccc3c2n1CCCCN(C(=O)OC)C1CS(=O)(=O)C1` [Example 14, Methyl (4-(4-amino-2-(2-methoxyethyl)-1H-imidazo[4,5-c]quinolin-1-yl)butyl)(1,1-dioxidothietan-3-yl)carbamate] here?
A: The minimal effective concentration was 0.001 µM.

Q: For `CCc1nc2c(N)nc3ccccc3c2n1CCCCN(C(=O)OC)C1CS(=O)(=O)C1` [Example 8, Methyl (4-(4-amino-2-ethyl-1H-imidazo[4,5-c]quinolin-1-yl)butyl)(1,1-dioxidothietan-3-yl)carbamate], which minimal effective concentration is on record?
A: Its minimal effective concentration is 0.03 µM.

Test system: IFN-α secretion
Assay: In vivo profiling: plasma IFN-α after single intravenous infusion in cynomolgus monkeys (ELISA)
Conditions: cynomolgus monkey, single dose 0.3 mg/kg (smallest dose tested), 30 min i.v. infusion
Method: In the following studies, a compound according to the invention was examined in an in vivo cynomolgus monkey model. It is evaluated whether and at which applied dose the compounds cause secretion of IFN-α.
In particular, a defined single dose of test compound was applied intravenously to cynomolgus monkeys by a thirty minute infusion. At several time points after initiation of the intravenous compound application, blood samples (0.5 mL for approximately 0.25 mL plasma) were collected from the vena cephalica antebrachii or vena saphena into K3EDTA tubes from the animals. Blood samples were stored on crushed ice prior to centrifugation. Plasma was obtained by centrifugation at 4° C. and approximately 1800 g for 10 minutes and was aliquoted into labeled micro tubes and stored frozen at −70° C. or below. Plasma samples were thawed, diluted and used for determination of IFN-α levels using an IFN-α Elisa Kit (e.g. VeriKine™ Cynomolgus/Rhesus IFN-α ELISA Kit) according to the manufacturer's instructions.

Q: With `CCc1nc2c(N)nc3ccccc3c2n1CCCCN(C(C)=O)C1CS(=O)(=O)C1` [Example 7, N-(4-(4-Amino-2-ethyl-1H-imidazo[4,5-c]quinolin-1-yl)butyl)-N-(1,1-dioxidothietan-3-yl)acetamide] as the compound, how does the “peak plasma IFN-α concentration” value read?
A: The value was “about 5000 pg/ml”.

Same assay, conditions: cynomolgus monkey, single dose 10 mg/kg, 30 min i.v. infusion

Q: For `CCc1nc2c(N)nc3ccccc3c2n1CCCCN(C(C)=O)C1CS(=O)(=O)C1` [Example 7, N-(4-(4-Amino-2-ethyl-1H-imidazo[4,5-c]quinolin-1-yl)butyl)-N-(1,1-dioxidothietan-3-yl)acetamide], which “peak plasma IFN-α concentration” value is on record?
A: The value was “about 30,000 pg/ml”.
